This note sets out measurements from PubChem BioAssay (NCI).

Each structure is given as a SMILES string.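 In this assay, cells in 96-well plates receive the compound at five concentrations for 48 hours. Endpoints are linearly interpolated between the surrounding concentrations. TGI is the concentration that stops growth completely.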 Where a SMILES comes first, the peptide text is derived from it. The star is where a group is joined. Boc = CC(C)(C)OC(=O)*

Test systems include HCC-2998 colon; HT29 colon; OVCAR-4 ovarian; U251 CNS; SR leukemia; KM12 colon; NCI-H522 lung; NCI-H460 lung; SF-295 CNS.
Assay in all cases: NCI anticancer screen, dose series, 48 h

For `Cc1c(Cc2ccccc2)n(C(C)OCCN(OC(=O)Oc2ccccc2)C(=O)Oc2ccccc2)c(=O)[nH]c1=O` (centres undefined), the TGI was 31.5 µM in the assay with HCC-2998 colon; 32.1 µM with HT29 colon; 42.8 µM in the assay on OVCAR-4 ovarian; 38.3 µM in the assay on U251 CNS; above 100 µM in the assay on SR leukemia; 29.9 µM in the assay with KM12 colon. The TGI came out at 29.3 µM in the assay with NCI-H522 lung, 32.7 µM in the assay on NCI-H460 lung and 30.8 µM in the assay on SF-295 CNS.

For the compound `COC(C/C(=C/CO[Si](C(C)C)(C(C)C)C(C)C)C(=O)N(C(=O)OC(C)(C)C)c1ccccc1I)OC`, the TGI in the assay on HCC-2998 colon, in the assay on HT29 colon, with OVCAR-4 ovarian, in the assay with U251 CNS, in the assay on SR leukemia and with KM12 colon was above 100 µM in each case. In addition, the TGI in the assay on NCI-H522 lung is 18.3 µM; in the assay on NCI-H460 lung, above 100 µM; in the assay with SF-295 CNS, 41 µM.

Regarding `COc1cccc2c1NC(=O)Cc1c-2[nH]c2ccccc12`, the TGI in the assay on HCC-2998 colon, with HT29 colon, with OVCAR-4 ovarian, with U251 CNS, in the assay on SR leukemia and in the assay with KM12 colon was above 100 µM each time. Besides, the TGI in the assay with NCI-H522 lung, with NCI-H460 lung and with SF-295 CNS was above 100 µM in each case.

As to `Cc1ccc(/C=C/C(=O)Oc2ccc(/C=C3\CCC/C(=C\c4ccc(OC(=O)/C=C/c5ccc(C)cc5)cc4)C3=O)cc2)cc1`, the TGI in the assay on HCC-2998 colon is above 100 µM; with HT29 colon, above 100 µM; with OVCAR-4 ovarian it was above 100 µM; in the assay on U251 CNS it was above 100 µM; in the assay on SR leukemia, 96.4 µM; in the assay on KM12 colon, above 100 µM. For the same compound, the TGI in the assay on NCI-H522 lung, in the assay on NCI-H460 lung and in the assay on SF-295 CNS was above 100 µM throughout.

For `Clc1ccc(CCNC2(c3cc4ccccc4s3)CCCCC2)cc1Cl`, the TGI was 22.1 µM in the assay with HCC-2998 colon; 87.1 µM in the assay with HT29 colon; above 100 µM in the assay with OVCAR-4 ovarian; 65.4 µM in the assay with U251 CNS; 32.5 µM in the assay with SR leukemia; 61.8 µM with KM12 colon. Besides, the TGI in the assay with NCI-H522 lung turned out to be 43.9 µM; in the assay with NCI-H460 lung it was 40.3 µM; with SF-295 CNS, 84.3 µM.

In the case of `CN(C)CN1CSC(=S)N(CN(C)C)C1`, the TGI was above 100 µM in the assay with HCC-2998 colon; above 100 µM in the assay on HT29 colon; above 100 µM in the assay with OVCAR-4 ovarian; above 100 µM with U251 CNS; 55.2 µM with SR leukemia; above 100 µM with KM12 colon. In addition, the TGI in the assay on NCI-H522 lung, with NCI-H460 lung and in the assay on SF-295 CNS was above 100 µM throughout.

For the compound `CC(=O)OCC1OC(n2cnc3nc(Br)[nH]c(=O)c32)C(OC(C)=O)C1OC(C)=O` (centres undefined), the TGI in the assay on HCC-2998 colon, with HT29 colon, in the assay on OVCAR-4 ovarian, in the assay on U251 CNS, in the assay with SR leukemia and in the assay with KM12 colon was above 100 µM in each case. Moreover, the TGI in the assay with NCI-H522 lung, in the assay on NCI-H460 lung and in the assay with SF-295 CNS was above 100 µM in each case.

For the compound `COc1ccc2c(c1)CC[C@@H]1C2CC[C@]2(C)C(=O)N(CCN(C)C)C(=O)CC12` (some centres undefined), the TGI in the assay with HCC-2998 colon, with HT29 colon, with OVCAR-4 ovarian, with U251 CNS, with SR leukemia and in the assay with KM12 colon was above 100 µM throughout. Also, the TGI with NCI-H522 lung, with NCI-H460 lung and in the assay with SF-295 CNS was above 100 µM in each case.

As to `COC(=O)C(Cc1ccccc1)NC(=O)C(CS)NC(=O)OC(C)(C)C` (stereo not drawn) (Boc-Cys-Phe-OMe; configuration not given here), the TGI in the assay on HCC-2998 colon, in the assay with HT29 colon, in the assay with OVCAR-4 ovarian, in the assay on U251 CNS, with SR leukemia and in the assay with KM12 colon was above 100 µM throughout. Besides, the TGI with NCI-H522 lung, in the assay on NCI-H460 lung and in the assay on SF-295 CNS was above 100 µM in each case.

For `CC(C)NC(=O)OCc1c(COC(=O)NC(C)C)c(-c2ccc[n+](COC(=O)Cc3ccccc3)c2)n2c1CCC2`, the TGI in the assay with HCC-2998 colon is above 100 µM; with HT29 colon, above 100 µM; with OVCAR-4 ovarian it was 57.8 µM; in the assay with U251 CNS, above 100 µM; in the assay with SR leukemia, above 100 µM; with KM12 colon, above 100 µM. Moreover, the TGI with NCI-H522 lung was 36.2 µM; in the assay with NCI-H460 lung, above 100 µM; in the assay on SF-295 CNS it was above 100 µM.

Turning to `Cn1cnc(N2CCCC2)c(C#N)c1=S`, the TGI in the assay with HCC-2998 colon, in the assay on HT29 colon, in the assay on OVCAR-4 ovarian, in the assay with U251 CNS, with SR leukemia and in the assay with KM12 colon was above 100 µM each time. The TGI in the assay with NCI-H522 lung, with NCI-H460 lung and with SF-295 CNS was above 100 µM throughout.
